Results reported in US5364877A, “Indole derivatives as 5-lipoxygenase inhibitors” (ICI Pharma, priority 1990, dated 1994).

Target: T1, 5-LO (Rattus norvegicus, UniProt P12527)
T1 construct: liberation of LTB4 induced by zymosan within an air pouch generated within the subcutaneous tissue of the back of male rats; endogenous in cells; host or cells: cells in the air pouch of living male rats (in vivo)
T1 sequence (P12527 1-673): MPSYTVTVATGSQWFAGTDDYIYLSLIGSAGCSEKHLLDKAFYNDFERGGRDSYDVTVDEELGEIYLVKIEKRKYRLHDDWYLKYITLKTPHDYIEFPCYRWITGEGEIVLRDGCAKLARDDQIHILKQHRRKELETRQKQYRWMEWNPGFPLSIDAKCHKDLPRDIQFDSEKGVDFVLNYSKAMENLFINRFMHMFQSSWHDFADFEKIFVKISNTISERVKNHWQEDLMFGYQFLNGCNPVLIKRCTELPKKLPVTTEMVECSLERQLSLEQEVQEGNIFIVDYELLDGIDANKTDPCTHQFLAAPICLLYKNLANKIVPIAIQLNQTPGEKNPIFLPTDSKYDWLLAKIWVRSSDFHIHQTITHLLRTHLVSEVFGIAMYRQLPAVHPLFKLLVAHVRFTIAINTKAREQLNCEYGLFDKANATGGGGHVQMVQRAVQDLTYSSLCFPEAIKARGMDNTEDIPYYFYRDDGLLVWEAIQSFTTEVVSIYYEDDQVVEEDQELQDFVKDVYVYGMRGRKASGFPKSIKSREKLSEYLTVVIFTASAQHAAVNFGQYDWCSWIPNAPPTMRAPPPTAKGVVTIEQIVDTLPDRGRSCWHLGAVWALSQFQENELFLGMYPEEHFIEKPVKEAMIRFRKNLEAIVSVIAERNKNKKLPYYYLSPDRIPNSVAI
Test: Test g) zymosan-induced liberation of LTB4 within an air pouch in male rats
Type: in vivo
Details: rat, 3 h; test g), oral
Protocol: g) An in vivo system involving measuring the effects of a test compound administered orally against the liberation of LTB4 induced by zymosan within an air pouch generated within the subcutaneous tissue of the back of male rats. The rats are anaesthetised and air pouches are formed by the injection of sterile air (20 ml). A further injection of air (10 ml) is similarly given after 3 days. At 6 days after the initial air injection the test compound is administered (usually orally as the suspension produced when a solution of the test compound in dimethylsulphoxide is added to hydroxypropylmethylcellulose), followed by the intrapouch injection of zymosan (1 ml of a 1% suspension in physiological saline). After 3 hours the rats are killed, the air pouches are lavaged with physiological saline, and the specific radioimmunoassay described above is used to assay LTB4 in the washings. This test provides an indication of inhibitory effects against 5-LO in an inflammatory milieu.

ED50: < 2 mg/kg
SMILES: COC1(c2cccc(Sc3ccc4c(c3)n(C)c(=O)n4C)c2)CCOCC1 [Example 1, 4-[3-(1,3-dimethyl-2-oxo-2,3-dihydrobenzimidazol-5-ylthio)phenyl]-4-methoxytetrahydropyran]
